Source: patent publication US20240262791A1, “B[…] […] AMINO ACIDS” (priority 2021, published 2024)

What was measured:
Afb7X = Afb7X and MBP-Z(24F-FSY) cross-linking; assay type: biochemical; details: MBP-Z(24F-FSY) with Afb7X, PBS pH 7.4, 37° C., 12 h
Protocol: We also introduced F-FSY into the maltose binding protein (MBP) fused Z protein at position 24 (MBP-Z(24F-FSY)). The purified MBP-Z(24F-FSY) was analyzed by electrospray ionization time-of-flight mass spectrometry (ESI-TOF MS). A peak observed at 50829 Da corresponds to intact MBP-Z containing F-FSY at site 24 (data not shown). We then tested the reactivities of F-FSY towards amino acid residue using the binding complex of MBP-Z and the Zspa affibody (Afb). Upon Afb-Z binding, F-FSY would be place in close proximity with the residue at position 7 of Afb (Afb7X) and would form a covalent bond with the targeting residue, causing protein-protein cross-linking.
0.5 mg/ml Afb7X and 1 mg/ml MBP-Z(24F-FSY) were incubated in PBS (pH 7.4) at 37° C. for 12 h, after which 1 j.tL reaction solution was extracted and mixed with 10 j.tL Laemmli loading buffer. The mixture was heated to 95° C. for 10 min and then loaded for SDS-PAGE, after which the gel was stained with Coomassie blue and imaged with ChemiDoc™ MP imaging system (Bio-rad).

WT Spike RBD = target: T1, WT Spike RBD (Severe acute respiratory syndrome coronavirus 2, UniProt P0DTC2); assay type: biochemical, SARS-CoV-2
T1 construct: SARS-CoV-2 spike protein, RBD, 6His tag (S protein) was purchased from ACRObiosystems (#SRD-C52H3); purchased ACRObiosystems #SRD-C52H3

[1] = SFY crosslinking of protein residues and RNA in cells; assay type: cell-based; details: E. coli and HEK293T cells
Protocol: FIG. 4B: Fluorescence confocal images HEK293 cells expressing EGFP(40TAG) gene and the Mm-tRNA^Pyl/MmSFYRS with and without 1 mM SFY. FIG. 4C: Flow cytometric analysis of SFY incorporation into EGFP(40TAG) in HEK293 cells using Ma-tRNA^Pyl/MaSFYRS. […] FIGS. 4E-4F: Analysis of crosslinking of Afb(24SFY) with MBP-Z(7X) in E. coli cells. Western blot of E. coli cell lysate (FIG. 4E); SDS-PAGE of proteins His-tag purified from E. coli (FIG. 4F). Maltose binding protein (MBP) was fused to the N-terminus of Z protein to better separate Z from Afb in size. […] FIG. 4H: Western blot analysis of lysate of HEK293T cells expressing GST(103SFY-107X). X is the target residue indicated. FIG. 4I: Western blot analysis E. coli cells expressing Hfq with SFY incorporated at site 25 or 49. Cell lysate samples were treated with or without RNase before loading, and an anti-His antibody was used to detect the 6×His tag appended at the C-terminus of expressed Hfq.

GST = test: Cross-linking of GST-103SFY-107X in live mammalian cells; assay type: cell-based; details: SFY at site 103 of GST, residue 107 varied, HEK293T cells
Protocol: […] of pcDNA-GST-103TAG-107X (X=A, H, Y or K)^3 and […] of pNEU-MmSFYRS-4xU6M15 were co-transfected into target cells using 5 μL of lipofectamine 2000 following the manufacturer's instructions. Six hours post transfection, the media were replaced with complete DMEM media with or without 1 mM SFY. The cells were incubated at 37° C. for additional 48 h, collected, and applied for immunoblot analysis.

HEK293T cells = assay type: cell-based; details: 0 to 1 mM SFY, 24-48 h
Protocol: 2×10^4 cells/well of HEK293T cells were seeded in a 96-well plate. On the next day, the media were replaced with fresh DMEM media supplemented with 0, 0.0625, 0.125, 0.25, 0.5, or 1 mM of SFY. The SFY-treated and control cells were cultured for an additional 24-48 h at 37° C. and then analyzed with CellTiter-Blue® Cell Viability Assay following the manufacturer's instructions.

[2] = tested on: nucleoside monophosphates (NMPs: AMP, UMP, CMP, or GMP); test: In vitro incubations of NMPs and SFY; details: 50 mM SFY, 50 mM NMP, 37° C.
Protocol: In addition, to check if SFY could cross-link all four nucleotides, we incubated 50 mM SFY with 50 mM different nucleoside monophosphates (NMPs: AMP, UMP, CMP, or GMP) at 37° C. for 16 hours.
50 mM SFY (HCl salt) and 50 mM NMP was incubated in DI H2O. 50 mM NaOH was added to neutralize the HCl salt. The mixture was incubated at 37° C. for 48 h. Then the reaction mixture was diluted for 50 times in H2O/acetonitrile (50/50, v/v, with 0.1% trifluoracetic acid) and subjected to mass spectrum analysis using positive mode. Mass spectrum analysis was performed on SCIEX MDS, 3200 Q TRAP system.

[3] = tested on: HeLa-EGFP (182TAG) reporter cells; test: Genetic incorporation of mFSY in HeLa-EGFP (182TAG) reporter cells; assay type: cell-based; details: no mFSY added or 1 mM mFSY added
Source text: FIGS. 12A-12C: Genetic incorporation of mFSY into proteins in mammalian cells. FIG. 12A: FACS analysis of mFSY incorporation into HeLa-EGFP (182TAG) cells. Negative control cells were either not transfected with any plasmid or were not treated with mFSY. FACS data is representative of three biological replicates. FIG. 12B: Bar graph showing total EGFP fluorescence percentage from FACS data. Error bar: s.d., n=3. FIG. 12C: Fluorescence microscopy and brightfield images of HeLa-EGFP (182TAG) reporter cells under two conditions: no mFSY added or 1 mM mFSY added.

[4] = healthy volunteers in phase I trial, patients in phase II trial; cited from earlier work

NC(Cc1ccc(OS(=O)(=O)F)c(F)c1)C(=O)O (centres unmarked) [FFY]
residues forming a covalent bond with F-FSY (Afb7X): form a covalent bond with Lys, His and Tyr | PERx reaction rate over FSY in the mNB6 system (WT Spike RBD): 240%

COc1ccc(CC(N)C(=O)O)cc1S(=O)(=O)F (centres unmarked) [SFY, o-sulfonyl fluoride-O-methyltyrosine]
crosslinking capability of SFY [1]: allows crosslinking of His, Tyr, Lys residues in protein and of RNA in cells | residues reacting with SFY placed in proximity (GST): react with His, Tyr, and Lys | toxicity to HEK293T cells (HEK293T cells): did not observe obvious toxicity | cross-linking adducts with NMPs detected by MS [2]: Cross-linking adducts of SFY with all four NMPs were detected

NC(Cc1cccc(OS(=O)(=O)F)c1)C(=O)O [mFSY, meta-fluorosulfate-L-tyrosine]
EGFP fluorescence (mFSY incorporation) [3]: Fluorescence is only seen after the addition of mFSY

rhACE2
safety and tolerability [4]: safe and well tolerated
